From patent US9657260B2, “Method and system for continous monitoring of toxicity” (Yissum Research Development Company of The Hebrew …, priority 2014, dated 2017)
“And” between values parts separate entries of the source, which are not always exact repeats. Equal entries are not always repeated. “Also recorded” adds a separate entry of the source.

Columns and labels:
[1] = tested on: HepG2/C3A cells; experiment: in vitro; details: for % of normal respiration: within 60 minutes (fast phase); for time to onset of mitochondrial (respiratory) damage: human
Description: (§1) Reactor Seeding. The following steps of cell seeding and reactor assembly were carried out in a sterile hood. Prior to seeding cells into the reactor, the PDMS-based well unit and all tubings were cleaned and sterilized with 70% EtOH, washed with ddH2O, dried and subsequently exposed to UV light for at least 30 min. The cells were detached from the tissue culture substrate with trypsin-EDTA (Biochrom, Berlin, Germany), counted, centrifuged at 280 rpm for 5 min at 4° C. and resuspended with 100 μl of collagen type I solution to a final density of 4×10^6 cells per device. During resuspension of the cells, 300 μg to 500 μg oxygen sensing beads (CPOx-50-RuP, Colibri Photonics, Potsdam, Germany) were added, resulting in at least ten to 20 beads per microwell after completion of the cell seeding protocol. The collagen type I solution was made of 560 μl ddH2O, 100 μl PBS (10×), 6.25 μl of 1 N NaOH and 333 μl of collagen type I (3.6 mg ml^−1, BD Biosciences, San Jose, Calif., USA). The PDMS microwells were primed for 5 min on ice with this solution in order to eliminate air bubbles from the wells. Subsequently, 100 μl of collagen type I suspension containing cells and oxygen-sensing beads was placed on top of the PDMS-based well unit, thus covering all nine microwells. The unit was kept in a sterile 50.8 mm petri dish placed on ice for 5 min in order to allow the cells to sediment into the wells. The low temperature prevented premature collagen polymerization and the induction of cellular stress response pathways. Afterwards, excess cell and microbead suspension was gently but thoroughly wiped off the PDMS-based well unit using a sterile glass coverslip (FIG. 2C) leading to a concentration of 100,000 cells/well. The inoculated well unit was then incubated for 5 min at 37° C. in a humidified cell incubator (see above) at 5% CO2 in order to polymerize the collagen and by this immobilize the cells and microbeads in the wells. Following polymerization, the well unit, loaded with the cells, was immersed in 5 ml of MEM medium (composition see above) for 20 min at 37° C. in a cell incubator (see above). Subsequently, the PDMS-based well unit was transferred into the bioreactor. After sealing, the bioreactor was placed into the climate control chamber (37° C., ACUO2, Evotec, Germany) of an inverted fluorescence microscope (IX81, Olympus, Japan) and perfused with MEM (composition see above) supplemented with 10 mM HEPES with a flow rate of 10 μl min^−1 using a syringe pump (Harvard Apparatus, USA). The automated and motorized microscope stage was equipped with a holder for three microreactors, allowing for performing three experiments simultaneously.
(§2) Chemical compound injection. […] Succinate as the substrate for complex II was used as an electron donor for the putatively toxicologically affected complex I in the mitochondrial electron transfer system (ETS), whereas TMPD was used to donate electrons to cytochrome c in order to test for a putative toxicological effect on complex III in the ETS. Ascorbate was used to maintain TMPD in a reduced state. The cytotoxic effects were evaluated by real-time monitoring of the change in oxygen consumption and for subsequent confirmation of the toxicological endpoints also by specific conventional staining assays (see below).
(§3) Oxygen measurement. Real-time oxygen measurements were performed optically by means of phosphorescence quenching. Biocompatible polystyrene microbeads with a diameter of 50 μm equipped with a ruthenium-phenanthroline-based phosphorescence dye (CPOx-50-RuP, Colibri Photonics, Potsdam, Germany) were used as microprobes and were coimmobilized with the cells (FIG. 1D) in the collagen matrix during reactor seeding (described above). The electronic measurement system (OPAL, Colibri Photonics, Germany) comprises a control module, an LED as the excitation source and a detector unit (FIG. 1A).

[2] = tested on: HeLa cells; experiment: Real-time oxygen uptake of HeLa cells in the bioreactor; assay type: cell-based, human; details: for effect of ascorbate and TMPD on the loss of oxygen uptake: 10 μM, preincubation with 2 mM ascorbate and 0.5 mM TMPD
Excerpt: Chemical compound injection.
Oxygen measurement. […] Thus, the camera port was kept available for imaging.

[3] = in vitro; details: human
Description: as §1, §2, §3

[4] = tested on: HepG2/C3A cells; experiment: Electrochemical glucose and lactate sensing at the bioreactor outflow; assay type: cell-based, human; details: 50 μM; for lactate over glucose ratio reached after exposure: before exposure 1.3 (rotenone), 1.2 (Troglitazone)
Description: Cells respond to mitochondrial dysfunction by adapting their metabolic response to circumvent oxidative phosphorylation. To track this response electrochemical sensors for glucose and lactate were attached to bioreactor outflow in a PMMA housing with 16 μl dead volume (FIG. 5 A-C). Samples were collected sequentially using a computer controlled microfluidic switchboard (FIG. 5D). Micromechanical valves (FIG. 5E) introduced a sequence of (1) washing buffer, (2) air bubble interface, and (3) a bioreactor sample every hour. Proof of principle was shown with 50 μM rotenone, a direct mitochondrial C1 inhibitor, causing an 80% loss in respiration (FIG. 5F). […] Importantly, the system is sensitive enough to detect minute signals and off target effects. […] Lactate over glucose ratio increases slightly from 1.2 to 1.8, showing a shift toward glycolysis (FIG. 5I).

[5] = tested on: HepG2/C3A spheroids; assay type: cell-based, human
Description: Quantitative Real Time Polymerase Chain Reaction (qRT-PCR). RNA was isolated and purified utilizing Macherey-Nagel NucleoSpin RNA II kit according to manufacturer instructions. RNA concentration and purity was determined using NanoDrop ND-1000 spectrophotometer (Thermo Fisher Scientific, USA). cDNA was synthesized from 1 μg RNA sample using qScript cDNA SuperMix (Quanta BioSciences, USA) according to the manufacturer protocol. Gene expression analysis was carried out utilizing KAPA SYBR FAST Universal 2X qPCR Master Mix (Kapa Biosystems, Boston, USA) on BioRad CFX96 Real-Time System (New South Wales, Australia), according to the manufacturer protocol. Gene transcription was evaluated using the ΔΔCt method normalized to 60S ribosomal protein L32 (RPL32) or ubiquitin C (UBC).

[6] = tested on: HepG2/C3A cells; experiment: HCS LipidTOX staining for steatosis and phospholipidosis; assay type: cell-based, human; details: 24 hr exposure to amiodarone (200 pM as printed elsewhere in the source)
Description: Steatosis and phospholipidosis were evaluated using the HCS LipidTOX™ system (Life Technologies, USA) according to manufacturer directions. Briefly, cells were incubated with green neutral lipid and red phospholipidosis dyes and counterstained with 1 μg/mL Hoechst 33342 for 30 min, and washed with PBS. LipidTOX green and red staining intensity were normalized to number of Hoechst-labeled nuclei.

[7] = HeLa cells, 12.5 mM acetaminophen

Compound: CC(=O)Nc1ccc(O)cc1 [acetaminophen]
- % of normal respiration ([1]; 8 mM acetaminophen): 70%
- % of normal respiration ([1]; 12.5 mM acetaminophen): 55%
- % of normal respiration ([1]; 16 mM acetaminophen): 25%
- mitochondrial respiration immediately after exposure [2, 7]: identical rapid loss of mitochondrial respiration; also recorded: identical immediate loss of mitochondrial respiration
- second dose-independent phase of toxicity [2, 7]: failed to display the second dose-independent phase of toxicity; also recorded: absent in HeLa cells
- time at which the rapid loss of respiration ends [2, 7]: 60 min
- effect of ascorbate and TMPD on the toxic response ([2]; HeLa, 12.5 mM acetaminophen, 2 mM ascorbate and 0.5 mM TMPD): eliminated the toxicity; also recorded: abrogated the toxic response
- effect of succinate on the toxic response ([2]; HeLa, 12.5 mM acetaminophen, preincubation with 20 mM succinate): no effect on the toxicity; also recorded: did not affect HeLa response

Compound: Cc1c(C)c2c(c(C)c1O)CCC(C)(COc1ccc(CC3SC(=O)NC3=O)cc1)O2 (centres unmarked) [Troglitazone]
- CC50 [3]: 300 µM
- lactate over glucose ratio reached after exposure [4]: 1.8

Compound: Antimycin A
- effect of ascorbate and TMPD on the loss of oxygen uptake ([2]; HeLa): abrogated
- effect of ascorbate and TMPD on the loss of oxygen uptake ([2]; HeLa, listed as antimycin A): abrogated the toxic response

Compound: C=C(C)[C@H]1Cc2c(ccc3c2O[C@@H]2COc4cc(OC)c(OC)cc4[C@@H]2C3=O)O1 [rotenone]
- loss in respiration ([1]; 50 μM): 80%
- glucose uptake after 6 hours ([4]; after 6 hours, shift to glutaminolysis): loss of glucose uptake
- lactate over glucose ratio reached after exposure [4]: 2.5

Compound: C[S+](C)[O-] [DMSO]
- cell viability [5]: little affect on cell viability
- increase in PXR expression [5]: 8 fold
- increase in MRP3 expression ([5]; 1%, 28 days): 10 fold

Compound: CCCCc1oc2ccccc2c1C(=O)c1cc(I)c(OCCN(CC)CC)c(I)c1 [amiodarone]
- time to onset of mitochondrial (respiratory) damage ([1]; 200 µM): 15 h
- time to onset of mitochondrial (respiratory) damage ([1]; 500 µM): 6 h
- time to onset of mitochondrial (respiratory) damage ([1]; 1000 µM): 2 h
- increase in intracellular lipids (steatosis) [6]: 2.1 fold and 2 fold and > 2 fold
- increase in phospholipidosis [6]: 2.4 fold and 2.5 fold and > 2 fold
